Our source for the IC50 values is EP2951180B1, “2,6,7,8 SUBSTITUTED PURINES AS HDM2 INHIBITORS” (Merck Sharp & Dohme Corp., priority 2013, dated 2014).

This assay has as its target T1, HDM2 (Homo sapiens, UniProt Q00987).
T1 construct: Thioredoxin (N); made in house; host or cells: E. coli strain BL21(DE3)Rosetta
As to the kind of experiment: FRET assay (HDM2 inhibition; method not described in this part). The assay is classed as binding.

Molecules are shown by their SMILES.

T1 sequence (Q00987 17-125): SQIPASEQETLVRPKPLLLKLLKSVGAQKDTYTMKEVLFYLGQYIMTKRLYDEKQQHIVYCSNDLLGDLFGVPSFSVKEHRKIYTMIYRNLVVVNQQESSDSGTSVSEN

A word on the IC50: it is the point on the concentration scale where inhibition reaches its midpoint. Read a high IC50 as weaker potency. `C[C@@H](Nc1nc(C(=O)O)nc2nc(-c3ccc(C4OCCO4)cn3)n(Cc3ccc(C(F)(F)F)cc3)c12)C1CCC1` [Example 1.65, 6-{[(1R)-1-cyclobutylethyl]amino}-8-[5-(1,3-dioxolan-2-yl)pyridin-2-yl]-7-[4-(trifluoromethyl)benzyl]-7H-purine-2-carboxylic acid]: half-maximal inhibition (Table 1) (IC50) required 0.0622 µM.

In the case of `Cc1cccc(-c2nc3nc(C(=O)O)nc(N[C@H](C)C4CCC4)c3n2Cc2ccc(Cl)cc2Cl)c1` [Example 5.11, 6-{[(1R)-1-cyclobutylethyl]amino}-7-(2,4-dichlorobenzyl)-8-(3-methylphenyl)-7H-purine-2-carboxylic acid], it took 0.259 µM to reach half-maximal inhibition (Table 5) (IC50).

`Cc1ccc(OCCCO)c(-c2nc3nc(C(=O)O)nc(N[C@H](C)C4CC4)c3n2Cc2ccc(C#N)cc2)c1` [Example 4.16, (R)-7-(4-cyanobenzyl)-6-((1-cyclopropylethyl)amino)-8-(2-(3-hydroxypropoxy)-5-methylphenyl)-7H-purine-2-carboxylic acid] had an IC50 (Table 4) of 0.481 µM.

The compound `CCOc1ccc(C)cc1-c1nc2nc(C(=O)O)nc(N[C@H](C)C3CC3)c2n1Cc1ccc(Cl)cc1` [Example 4.7, (R)-7-(4-chlorobenzyl)-6-((1-cyclopropylethyl)amino)-8-(2-ethoxy-5-methylphenyl)-7H-purine-2-carboxylic acid] gave an IC50 (Table 4) of 0.123 µM.

Regarding `C[C@@H](Nc1nc(C(=O)O)nc2nc(-c3ccc4c(ccn4C)c3)n(Cc3ccc(C(F)(F)F)cc3)c12)C1CCC1` [Example 1.108, 6-{[(1R)-1-cyclobutylethyl]amino}-8-(1-methyl-1H-indol-5-yl)-7-[4-(trifluoromethyl)benzyl]-7H-purine-2-carboxylic acid], under “Table 1”, it took 0.0609 µM to reach half-maximal inhibition (IC50).

With `CCc1ccc(O)c(-c2nc3nc(C(=O)O)nc(N[C@H](C)C4CCC4)c3n2Cc2ccc(C(F)(F)F)cc2)c1` [Example 1.29, 6-{[(1R)-1-cyclobutylethyl]amino}-8-(5-ethyl-2-hydroxyphenyl)-7-[4-(trifluoromethyl)benzyl]-7H-purine-2-carboxylic acid], under “Table 1”, half-maximal inhibition (IC50) required 0.0461 µM.

On to `C[C@@H](Nc1nc(C(=O)O)nc2nc(-c3cc4ccccc4cn3)n(Cc3ccc(C(F)(F)F)cc3)c12)C1CCC1` [Example 1.62, 6-{[(1R)-1-cyclobutylethyl]amino}-8-isoquinolin-3-yl-7-[4-(trifluoromethyl)benzyl] - 7H-purine-2-carboxylic acid], for which inhibition (Table 1) was half-maximal at 0.0458 µM (IC50).

With `Cc1cccc(-c2nc3nc(C(=O)O)nc(N[C@H](C)C4CCC4)c3n2Cc2ccc(OC(F)(F)F)c(F)c2)c1` [Example 5.14, 6-{[(1R)-1-cyclobutylethyl]amino}-7-[3-fluoro-4-(trifluoromethoxy)benzyl]-8-(3-methylphenyl)-7H-purine-2-carboxylic acid], the half-maximal inhibitory concentration (IC50) (Table 5) came to 0.0364 µM.

`CCc1ccc(C)cc1-c1nc2nc(C(=O)O)nc(N[C@H](C)C3CCC3)c2n1Cc1ccc(C(F)(F)F)cc1` [Example 2.82, 6-{[(1R)-1-cyclobutylethyl]amino}-8-(2-ethyl-5-methylphenyl)-7-[4-(trifluoromethyl)benzyl]-7H-purine-2-carboxylic acid] came in with a concentration for half-maximal inhibition (IC50) (Table 2) of 0.0136 µM.

Compound `Cc1ccc(OCCCN2CCOCC2)c(-c2nc3nc(C(=O)O)nc(N[C@H](C)C4CC4)c3n2Cc2ccc(Cl)cc2)c1` [Example 4.14, (R)-7-(4-chlorobenzyl)-6-((1-cyclopropylethyl)amino)-8-(5-methyl-2-(3-morpholinopropoxy)phenyl)-7H-purine-2-carboxylic acid] had a 50% inhibitory concentration (IC50) (Table 4) of 0.212 µM.

Take `C[C@@H](Nc1nc(C(=O)O)nc2nc(-c3cc(OC4CCC4)ccn3)n(Cc3ccc(C(F)(F)F)cc3)c12)C1CCC1` [Example 1.45, 6-{[(1R)-1-cyclobutylethyl]amino}-8-[4-(cyclobutyloxy)pyridin-2-yl]-7-[4-(trifluoromethyl)benzyl]-7H-purine-2-carboxylic acid]: the IC50 (Table 1) is 0.0508 µM.
